Data published in publication PMC4464424, “Peptide–polymer ligands for a tandem WW-domain, an adaptive multivalent protein–protein interaction: lessons on the thermodynamic fitness of flexible ligands” (Beilstein Journal of Organic Chemistry, 2015).
Read-outs that look alike come from different tables or passages of the source. Ends that are not written are not given here.

T1: tandem WW domain of FBP21 (Homo sapiens, UniProt O75554)
T1 construct: multivalent peptide-polymer conjugates and the tandem WW domain of protein FBP21 determined at 8 °C by ITC measurements; made in house; host or cells: E. coli BL21 (DE3)
T1 sequence (O75554 122-196 limits assumed): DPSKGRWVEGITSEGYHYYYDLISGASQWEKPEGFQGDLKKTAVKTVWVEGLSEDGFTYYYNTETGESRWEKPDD

T2: pHPMA-1 (also: 6 peptides conjugated to pHPMA polymer)
T2 chain: CGPPPRGPPPR-NH2

T3: hPG-1 (also: 3 peptides conjugated to hyperbranched polyglycerol)
T3 chain: CGPPPRGPPPR-NH2

T4: pHPMA-2 (also: 9 peptides conjugated to pHPMA polymer)
T4 chain: CGPPPRGPPPR-NH2

T5: Dex-1 (also: 3 peptides conjugated to 10 kDa dextran)
T5 chain: CGPPPRGPPPR-NH2

T6: Dex-2 (also: 6 peptides conjugated to 10 kDa dextran)
T6 chain: CGPPPRGPPPR-NH2

T7: Dex-3 (also: 8 peptides conjugated to 50 kDa dextran)
T7 chain: CGPPPRGPPPR-NH2

T8: P1
T8 chain: GPPPRGPPPR-NH2

B1: FBP21 tandem WW (protein)
chain: DPSKGRWVEGITSEGYHYYYDLISGASQWEKPEGFQGDLKKTAVKTVWVEGLSEDGFTYYYNTETGESRWEKPDD

Tests used:
[1] = biological target: T1, tandem WW domain of FBP21; assay: Isothermal titration calorimetry (ITC) of peptide–polymer conjugates with tandem WW domain; type: binding; conditions: for Binding stoichiometry (peptide ligands per protein receptor): ratio of peptide ligand molecules relative to each protein binding site
Protocol: Binding studies with peptide–polymer conjugates were conducted employing isothermal titration calorimetry (ITC). This method enables the determination of the binding affinity of the multivalent ligands and elucidates the composition of the free energy of binding from the enthalpic and entropic contributions. In addition, the method can be used to determine the stoichiometry of the formed protein–ligand complex indicating the ratio of peptide ligand molecules relative to each protein binding site thereby giving valuable insights into the multivalency of binding and/or the degree of crosslinking. Thus, the method enables the identification of polymer–protein aggregates containing several polymers and proteins in a complex. No precipitation of the multicomponent aggregates that interfered with ITC measurements was observed during the experiments.
ITC-analysis (Figure 2) of the binding of multivalent peptide–polymer conjugates yielded KD values either corresponding to the polymer concentration or relative to the overall peptide concentration (N*KD). […] Binding in all cases was driven mainly by enthalpy, which clearly outweighed the observed entropy loss. In the seven peptide–polymer conjugates investigated, increased loading density of ligands led consistently to increased affinity of the multivalent ligand (Table 1). The most significant difference between dextran and the two other polymer carriers was the stoichiometry of the formed peptide-polymer–protein complex. […] Corresponding to the observed colloidal suspension/dispersion the stoichiometry of peptide ligands per protein receptor resulting from the ITC experiments was >2 for each of either pHPMA or hPG-based material, most pronounced for pHPMA with n = 2.6–2.8.
Figure 2 Representative ITC-measurements conducted at 8 °C with the peptide–polymer conjugates A) pHPMA-1 and B) Dex-2 showing an increase in affinity for the interaction of Dex-2 with the FBP21 tandem WW domains. […]
Isothermal Titration Calorimetry (ITC) Experiments
All samples for ITC were prepared with the phosphate buffer used for protein purification. A 10 mM stock solution of the peptide polymer conjugate in PBS was prepared and adjusted to pH 7.4 with a 50 mM NaOH solution in PBS. Aliquots of the stock solution were diluted to the final concentration of 1.5-2 mM with PBS.
Proteins were expressed as His- or GST-tagged fusion constructs in E.coli BL21 (DE3), purified by the corresponding affinity matrices, thrombin cleaved and applied to a gel filtration column (superdex-75) at 50 mM phosphate, 150 mM NaCl, 1 mM EDTA, pH 6.5 or 1xPBS, 1 mM EDTA, pH 7.4. Proteins were concentrated by Cen-trifugal Filter Units (regenerated cellulose, 3 kDa cut-off, Millipore) if necessary.
2 µl aliquots of peptide-polymer conjugates were titrated into a 50-70 µM protein solution inside the calorimeter cell (200 µl) while the reaction mixture was continuously stirred at 1000 rpm. Ligand concentration in the titration syringe was typically in 20-time excess corresponding to protein. Time intervals between injections were adjusted to 240 s which was sufficient for the heat signal to return to baseline level. In control experiments peptide-polymer conjugates were injected into […]
The heats of dilution were subtracted from the heats determined in the corresponding protein-ligand binding experiments. Automated baseline adjustment and peak integration were accomplished with the public-domain software NITPIC [5]. Estimation of best-fit parameter values by nonlinear least-squares fitting and calculation of 95% confidence intervals were performed with the public-domain software SEDPHAT [6].
Polymer-attached peptides were considered as monovalent ligands, and the tandem WW protein as receptor molecule with two similar independent binding sites. Binding was analysed in terms of simple hetero-association model. Corresponded calculation gives the microscopic binding constants that characterise the binding affinity of […]

[2] = biological target: T1, tandem WW domain of FBP21; conditions: peptide alone, read-out: dissociation constant (KD); cited from earlier work
Text: ITC-analysis (Figure 2) of the binding of multivalent peptide–polymer conjugates yielded KD values either corresponding to the polymer concentration or relative to the overall peptide concentration (N*KD).

pHPMA-1 = biological target: T2, pHPMA-1; assay: ITC
hPG-1 = biological target: T3, hPG-1; assay: ITC
pHPMA-2 = biological target: T4, pHPMA-2; assay: ITC
Dex-1 = biological target: T5, Dex-1; assay: ITC
Dex-2 = biological target: T6, Dex-2; assay: ITC
Dex-3 = biological target: T7, Dex-3; assay: ITC
P1 = biological target: T8, P1; assay: ITC
[3] = ITC at 8 °C, PBS pH 7.4, 2 µl aliquots of conjugate titrated into 50-70 µM protein, KD related to polymer concentration, 1:1 binding model, read-out: KD (binding affinities of peptide–polymer conjugates)

| Molecule | Kd [1, 3] [µM] | Binding stoichiometry (peptide ligands per protein receptor) ([1]; ITC at 8 °C) | also measured |
| --- | --- | --- | --- |
| Ac-GPPPRGPPPR-NH2 [Ac-P1] | > 1000 |  | Kd ([1]; ITC at 8 °C, PBS pH 7.4, related to overall peptide concentration, N = number of ligands per polymer, read-out: Rel. KD = N*KD (binding affinity related to overall peptide concentration)): > 1000 µM |
| CGPPPRGPPPR [Dex-3] |  | 1.3 |  |
| CGPPPRGPPPR [hPG-1, hyperbranched polyglycerol modified with maleimido groups, coupled with 3 copies of P2] |  | 2.3 |  |
| CGPPPRGPPPR [pHPMA-1, poly(N-(2-hydroxypropyl)methacrylamide) NCL-polymer conjugated with 6 copies of P2 by native chemical ligation] | 5 ± 0.8 | 2.6 |  |
| CGPPPRGPPPR [pHPMA-2, poly(N-(2-hydroxypropyl)methacrylamide) NCL-polymer conjugated with 9 copies of P2 by native chemical ligation] |  | 2.8 |  |
| GPPPRGPPPR-NH2 [P1] |  |  | Kd ([1]; monovalent ligand, tandem WW-domain of FBP21, as stated in the abstract, read-out: KD): > 1000 µM; Kd [2]: > 1000 µM |
| CGPPPRGPPPR [Dex-1] | 7 ± 1.2 | 1.8 |  |
| CGPPPRGPPPR [hPG-2, hyperbranched polyglycerol modified with maleimido groups, coupled with 4 copies of P2] | 5 ± 1.3 | 2.4 |  |
| CGPPPRGPPPR [Dex-2] |  | 1.4 |  |
| B1 |  |  | Kd (pHPMA-1): 5 µM; Kd (hPG-1): 6.3 µM; Kd (pHPMA-2): 3.3 µM; Kd (Dex-1): 7 µM; Kd (Dex-2): 1.2 µM; Kd (Dex-3): 1.6 µM; Kd (P1): > 1000 µM |
